Measurements published in patent US10155802B2, “Locally-active anticoagulants and anti-inflammatory agents” (priority 2011, dated 2018).
Positions of bridges follow the written chain, without caps; N, C: chain ends. Non-standard residues stand in square brackets, D forms with d. Residues, ends and D or L forms follow the SMILES beside them. Chains are numbered I, II in the order given. No end group written: not given here. *: point of attachment. Benzenesulfonyl(4-tBu) = CC(C)(C)c1ccc(S(=O)(=O)*)cc1; Dansyl = CN(C)c1cccc2c(S(=O)(=O)*)cccc12; dTic = O=C(O)[C@H]1Cc2ccccc2CN1; dPip = O=C(O)[C@H]1CCCCN1

Columns and labels:
Type in all cases: biochemical
Human α-thrombin [1] = molecular target: T1, Human α-thrombin (Homo sapiens, UniProt P00734); test: Inhibition of thrombin-catalyzed hydrolysis of chromogenic substrate S-2366 (inhibition constant Ki); conditions: Ki
T1 construct: Human α-thrombin was purchased from Haemotologic Technologies, Inc., VT, USA; purchased Haemotologic Technologies, Inc., VT, USA

Human α-thrombin [2] = molecular target: T1, Human α-thrombin; test: Thrombin inhibition constants of monovalent active-site moieties and TWE1 (method not described)
thrombin = thrombin (Homo sapiens, UniProt P00734); test: Fibrinogen clotting assay (concentration needed to double the clotting time = IC50)
Protocol: The same enzyme kinetic assays were used to determine the inhibitory activities of MH2 and two MH2-derived peptides, MH2-allGS and MH2-GS (Table 4). Clotting assays were carried out to determine the inhibitory activities of the rest of the MH2 peptides by use of the protocols described previously (DiMaio 1990; Taka 2000; Su 2004). The assay employs bovine plasma fibrinogen dissolved at 0.1% in 50 mM Tris-Cl, 100 mM NaCl, 0.1% PEG-8000 at pH 7.6 (i.e. the clotting buffer). In addition to the use of optical densities or ODs (Gill 1989), concentrations of the peptide stock solutions were ranked (and corrected when necessary) by use of quantitative proton NMR spectroscopy (Cavaluzzi 2002). Each assay mixture contained a certain concentration of the peptide, and the reaction was started by the addition of human thrombin to a final concentration of approximately 0.5 nM. Optical absorbance of the assay mixtures was measured at 420 nm using the Spectramax™ plate reader. The onset clotting time was determined as an intersection of the baseline and the tangent line at point of inflection of the clotting curve. The concentration of an MH2 peptide needed to double the clotting time was defined as IC50 (DiMaio 1990) as illustrated in FIG. 4 and summarized in Table 4. The correlation between IC50 values and linker unfolding is similar to that for the BTI series of inhibitors (Table 3). […] (Table 3).

pooled human plasma [3] = test: Prothrombin time (PT, thromboplastin) clotting assay
Protocol: (§1) Prothrombin (clotting) time (PT) or activated partial thromboplastin (clotting) time (APTT) assays were carried out at certain concentrations of the thrombin inhibitors of the present invention using pooled human plasma with addition of thromboplastin or activated partial thromboplastin to initiate clotting. The assays employed kits from Biopool International (Ventura, Calif., USA) or from Pacific Haemostasis (Middletown, Va., USA) using the procedures supplied by the manufacturer. Briefly, the stock solution of an inhibitor (with the concentration determined using UV-based OD determination, see Gill 1989) is diluted in a buffer of 20 mM HEPES and 150 mM NaCl at pH 7.4 (HBS) to a final volume of 50 μL, to which is added the reconstituted normal plasma (Product #CMS-176172 from Fisher Scientific) in an equal volume. This solution mixture is equilibrated at 37° C. for 2 minutes before 50 μL of the APTT-10XL solution (CMS-022927) is introduced forcibly to ensure proper mixing. This new mixture was incubated at 37° C. for another 5 minutes, which is followed by the addition of 50 μL of 0.02 M […] (Fisher Scientific CMS-022925) pre-warmed at 37° C. For the prothrombin time (PT) assay, an inhibitor is diluted in HBS to a final volume of 25 μL, to which is added the reconstituted control plasma (Fisher Scientific CMS-176172) in an equal volume. This solution mixture is equilibrated at 37° C. for 5 minutes before addition of 100 μL of the thromboplastin solution (CMS-176099) pre-warmed at 37° C. For APTT assays, inhibitory activities of the peptides are expressed as concentrations needed to achieve 50% of the maximum delay in clotting time (MCT50) as compared to the absence of thrombin inhibitors (Maraganore 1989). For PT assays, inhibitory activities are measured as the concentrations of the peptides that prolong the clotting time by 50% (IC50) of that of the normal control plasma (Maraganore 1990). PT and APTT assays were also carried out using slightly modified experimental procedures. Thus, 50 μL of a control plasma (Pacific Hemostasis) solution was added to 100 μL HBS (20 mM HEPES and 150 mM NaCl at pH 7.4) containing varied concentrations of the peptides of this invention. After incubation at 37° C. for 5 min, the mixture was added to 50 μL of the thromboplastin or activated partial thromboplastin reagent. Clotting of the plasma was monitored by change in absorbance at 420 nm using a SpectraMax™ plate reader.

pooled human plasma [4] = test: Activated partial thromboplastin time (APTT) clotting assay; conditions: 37° C.; concentration for 50% of maximum delay in clotting time; read-out: MTC50 (APTT)
Protocol: as §1

[5] = monovalent binding moieties for the active site of thrombin

Compound	Ki (Human α-thrombin [2]; [5])	further results
CC[C@H](C)[C@H](NC(=O)[C@H](CCC(=O)O)NC(=O)[C@H](CCC(=O)O)NC(=O)[C@H](Cc1ccccc1)NC(=O)[C@H](CC(=O)O)NC(=O)CNC(=O)[C@H](CCC(=O)O)NC(=O)[C@@H](NC(=O)[C@H](Cc1c[nH]c2ccccc12)NC(=O)[C@@H](NC(=O)[C@H](Cc1c[nH]c2ccccc12)NC(=O)[C@@H](NC(=O)[C@H](CCCCN)NC(=O)[C@@H](NC(=O)[C@H](C)NC(=O)[C@H](CC(=O)O)NC(=O)[C@H](CC(=O)O)NC(=O)[C@H](Cc1c[nH]c2ccccc12)NC(=O)[C@@H](NC(=O)[C@H](Cc1c[nH]c2ccccc12)NC(=O)[C@H](CCC(=O)O)NC(=O)CNC(=O)[C@H](CC(=O)O)NC(=O)[C@@H](NC(=O)[C@H](Cc1ccccc1)NC(=O)[C@H](CCCNC(=N)N)NC(=O)[C@@H]1CCCN1)[C@@H](C)O)[C@@H](C)O)[C@@H](C)O)[C@@H](C)O)[C@@H](C)O)[C@@H](C)O)C(=O)N1CCC[C@H]1C(=O)N[C@@H](CCC(=O)O)C(=O)N[C@@H](CCC(=O)O)C(=O)N[C@@H](Cc1ccc(O)cc1)C(=O)N[C@@H](CC(C)C)C(=O)N[C@@H](CCC(N)=O)C(=O)O [BRI-T109]		Ki (Human α-thrombin [1]; FIG. 14A): 1.45 µM
variant of BTI1: disulfide-bond linkage between Bbs-Arg-(D-Pip)-Gly-Cys and 15N-labelled Cys-(GS)8-GDFEEIPEEYLQ (peptide 1 {Benzenesulfonyl(4-tBu)}-R[dPip]GC; peptide 2 CGSGSGSGSGSGSGSGSGDFEEIPEEYLQ; disulfide I:4-II:1; also: chain 2 15N-labelled) [TWE1]		Ki (Human α-thrombin [2]; bivalent inhibitor TWE1): 0.0022 ± 0.0004 µM
CC(=O)N[C@H](Cc1ccccc1)C(=O)N1CCC[C@H]1C(=O)N[C@@H](CCCNC(=N)N)C(=O)O [Ac-dFPR]	170 ± 18 µM	
CC[C@H](C)[C@H](N)C(=O)N[C@@H](CCCNC(=N)N)C(=O)N[C@@H](Cc1ccccc1)C(=O)N[C@H](C(=O)N[C@@H](CC(=O)O)C(=O)NCC(=O)N[C@@H](CCC(=O)O)C(=O)NCC(=O)N[C@H](C(=O)N1CCC[C@H]1C(=O)N[C@@H](CC(N)=O)C(=O)N1CCC[C@H]1C(=O)N[C@@H](CCC(=O)O)C(=O)N[C@@H](CO)C(=O)N[C@@H](Cc1c[nH]cn1)C(=O)N[C@@H](CC(N)=O)C(=O)N[C@@H](CC(N)=O)C(=O)NCC(=O)N[C@@H](CC(=O)O)C(=O)N[C@@H](Cc1ccccc1)C(=O)N[C@@H](CCC(=O)O)C(=O)N[C@@H](CCC(=O)O)C(=O)N[C@H](C(=O)N1CCC[C@H]1C(=O)N[C@@H](CCC(=O)O)C(=O)N[C@@H](CCC(=O)O)C(=O)N[C@@H](Cc1ccc(O)cc1)C(=O)N[C@@H](CC(C)C)C(=O)N[C@@H](CCC(N)=O)C(=O)O)[C@@H](C)CC)[C@@H](C)O)[C@@H](C)O [MH2]		IC50 (thrombin; IC50, printed inside the sequence cell of Table 1, temperature not stated): ~0.014 µM
CC[C@H](C)[C@H](NC(=O)[C@H](CCC(=O)O)NC(=O)[C@H](CCC(=O)O)NC(=O)[C@H](Cc1ccccc1)NC(=O)[C@H](CC(=O)O)NC(=O)CNC(=O)[C@H](CCC(=O)O)NC(=O)[C@@H](NC(=O)[C@H](Cc1c[nH]c2ccccc12)NC(=O)[C@@H](NC(=O)[C@H](Cc1c[nH]c2ccccc12)NC(=O)[C@@H](NC(=O)[C@H](CCCCN)NC(=O)[C@@H](NC(=O)[C@H](C)NC(=O)[C@H](CC(=O)O)NC(=O)[C@H](CC(=O)O)NC(=O)[C@H](Cc1c[nH]c2ccccc12)NC(=O)[C@@H](NC(=O)[C@H](Cc1c[nH]c2ccccc12)NC(=O)[C@H](CCC(=O)O)NC(=O)CNC(=O)[C@H](CC(=O)O)NC(=O)[C@@H](NC(=O)[C@H](Cc1ccccc1)NC(=O)[C@H](CCCNC(=N)N)NC(=O)[C@@H]1CCCN1C(=O)[C@H](CCCNC(=N)N)NC(=O)[C@@H]1CCCN1C(=O)[C@H](CCC(N)=O)NC(=O)[C@@H](N)Cc1ccccc1)[C@@H](C)O)[C@@H](C)O)[C@@H](C)O)[C@@H](C)O)[C@@H](C)O)[C@@H](C)O)C(=O)N1CCC[C@H]1C(=O)N[C@@H](CCC(=O)O)C(=O)N[C@@H](CCC(=O)O)C(=O)N[C@@H](Cc1ccc(O)cc1)C(=O)N[C@@H](CC(C)C)C(=O)O [BRI-T207]		Ki (Human α-thrombin [1]; T = 37° C., enzyme kinetics, chromogenic substrate): ~0.4 µM
CN(C)c1cccc2c(S(=O)(=O)N[C@@H](CCCNC(=N)N)C(=O)N3Cc4ccccc4C[C@@H]3C(N)=O)cccc12 [Dansyl-R-(d-Tic)-NH2] (Dansyl-Arg-[dTic]-NH2)	0.86 ± 0.06 µM	
CC[C@H](C)[C@H](N)C(=O)N[C@@H](CCCNC(=N)N)C(=O)N[C@@H](Cc1ccccc1)C(=O)N[C@H](C(=O)N[C@@H](CC(=O)O)C(=O)NCC(=O)N[C@@H](CCC(=O)O)C(=O)N[C@@H](Cc1c[nH]c2ccccc12)C(=O)N[C@H](C(=O)N[C@@H](Cc1c[nH]c2ccccc12)C(=O)N[C@@H](CC(=O)O)C(=O)N[C@@H](CC(=O)O)C(=O)N[C@@H](C)C(=O)N[C@H](C(=O)N[C@@H](CCCCN)C(=O)N[C@H](C(=O)N[C@@H](Cc1c[nH]c2ccccc12)C(=O)N[C@H](C(=O)N[C@H](C(=O)N[C@H](C(=O)N[C@@H](CCC(=O)O)C(=O)NCC(=O)N[C@@H](CC(=O)O)C(=O)N[C@@H](Cc1ccccc1)C(=O)N[C@@H](CCC(=O)O)C(=O)N[C@@H](CCC(=O)O)C(=O)N[C@H](C(=O)N1CCC[C@H]1C(=O)N[C@@H](CCC(=O)O)C(=O)N[C@@H](CCC(=O)O)C(=O)N[C@@H](Cc1ccc(O)cc1)C(=O)N[C@@H](CC(C)C)C(=O)N[C@@H](CCC(N)=O)C(=O)O)[C@@H](C)CC)[C@@H](C)O)C(C)C)[C@@H](C)O)[C@@H](C)O)[C@@H](C)O)[C@@H](C)O)[C@@H](C)O [MH2-wZIP6]		concentrations required in PT-APTT curves relative to MH2-GS (pooled human plasma [3]): about 2.5 times; IC50 (pooled human plasma [3]; 37° C., concentration that prolongs clotting time by 50%): < 0.4 µM; EC50 (pooled human plasma [4]): 3 µM; IC50 (thrombin; IC50 (anti-clotting), T = 37° C.): 0.053 µM
N=C(N)NCCC[C@H](NC(=O)[C@@H]1CCCN1C(=O)[C@H](N)Cc1ccccc1)C(=O)O [H-dFPR]	1.57 ± 0.06 µM	

Now from value to compound, other results behind:

Ki (Human α-thrombin [2]; [5])	Compound	further results
1.13 ± 0.03 µM	CC(C)(C)c1ccc(S(=O)(=O)N[C@@H](CCCNC(=N)N)C(=O)N2CCCC[C@@H]2C(N)=O)cc1 [Bbs-R-(d-Pip)-NH2]	
0.37 ± 0.04 µM	CN(C)c1cccc2c(S(=O)(=O)N[C@@H](CCCNC(=N)N)C(=O)N3CCCC[C@@H]3C(N)=O)cccc12 [Dansyl-R-(d-Pip)-NH2] (Dansyl-Arg-[dPip]-NH2)	
2.26 ± 0.1 µM	CC(C)(C)c1ccc(S(=O)(=O)N[C@@H](CCCNC(=N)N)C(=O)N2CCCC[C@@H]2C(=O)NCC(N)=O)cc1 [Bbs-R-(d-Pip)-G-NH2]	
6 ± 1 µM	CC(C)(C)c1ccc(S(=O)(=O)N[C@@H](CCCNC(=N)N)C(=O)N2CCCC[C@@H]2C(=O)N[C@@H](Cc2c[nH]c3ccccc23)C(N)=O)cc1 [Bbs-R-(d-Pip)-W-NH2]	
4.38 ± 0.18 µM	CC(C)(C)OC(=O)N[C@H](Cc1ccccc1)C(=O)N1CCC[C@H]1C(=O)N[C@@H](CCCNC(=N)N)C(=O)O [Boc-dFPR]	
